Laboratory results reported in ChEMBL document CHEMBL4270557, “Discovery of potent anti-convulsant carbonic anhydrase inhibitors: Design, synthesis, in vitro and in vivo appraisal” (Eur J Med Chem, 2018).
pKi: −log10 of the molar value.

Legend:
Carbonic anhydrase 1 = Carbonic anhydrase 1 (Homo sapiens, UniProt P00915); assay: Inhibition of human recombinant carbonic anhydrase 1 assessed as CO2 hydration preincubated for 15 mins prior to testing measured for 10 to 100 secs by phenol red dye-based stopped-flow assay
Carbonic anhydrase 2 = Carbonic anhydrase 2 (Homo sapiens, UniProt P00918); assay: Inhibition of human recombinant carbonic anhydrase 2 assessed as CO2 hydration preincubated for 15 mins prior to testing measured for 10 to 100 secs by phenol red dye-based stopped-flow assay
Carbonic anhydrase 7 = Carbonic anhydrase 7 (Homo sapiens, UniProt P43166); assay: Inhibition of human recombinant carbonic anhydrase 7 assessed as CO2 hydration preincubated for 15 mins prior to testing measured for 10 to 100 secs by phenol red dye-based stopped-flow assay
Carbonic anhydrase 9 = Carbonic anhydrase 9 (Homo sapiens, UniProt Q16790); assay: Inhibition of human recombinant carbonic anhydrase 9 assessed as CO2 hydration preincubated for 15 mins prior to testing measured for 10 to 100 secs by phenol red dye-based stopped-flow assay
Mus musculus [1] = assay: Anticonvulsant activity in Swiss albino mouse assessed as protection against maximal electroshock-induced seizures at 30 mg/kg, ip administered 0.5 hrs prior to 50 mA current induction relative to control; format: functional
Mus musculus [2] = assay: Anticonvulsant activity in Swiss albino mouse assessed as protection against maximal electroshock-induced seizures at 30 mg/kg, ip administered 3 hrs prior to 50 mA current induction relative to control; format: functional
Mus musculus [3] = assay: Anticonvulsant activity in Swiss albino mouse assessed as protection against maximal electroshock-induced seizures at 100 mg/kg, ip administered 0.5 hrs prior to 50 mA current induction relative to control; format: functional
Mus musculus [4] = assay: Anticonvulsant activity in Swiss albino mouse assessed as protection against maximal electroshock-induced seizures at 100 mg/kg, ip administered 3 hrs prior to 50 mA current induction relative to control; format: functional
Mus musculus [5] = assay: Anticonvulsant activity in Swiss albino mouse assessed as protection against subcutaneous PTZ-induced seizures at 30 mg/kg, ip administered 0.5 hrs prior to PTZ-induction relative to control; format: functional
Mus musculus [6] = assay: Anticonvulsant activity in Swiss albino mouse assessed as protection against subcutaneous PTZ-induced seizures at 30 mg/kg, ip administered 3 hrs prior to PTZ-induction relative to control; format: functional
Mus musculus [7] = assay: Anticonvulsant activity in Swiss albino mouse assessed as protection against subcutaneous PTZ-induced seizures at 100 mg/kg, ip administered 0.5 hrs prior to PTZ-induction relative to control; format: functional
Mus musculus [8] = assay: Anticonvulsant activity in Swiss albino mouse assessed as protection against subcutaneous PTZ-induced seizures at 100 mg/kg, ip administered 3 hrs prior to PTZ-induction relative to control; format: functional
Mus musculus [9] = assay: Anticonvulsant activity in Swiss albino mouse assessed as protection against maximal electroshock-induced seizures at 30 mg/kg, ip administered 3 hrs prior to 50 mA current induction relative to control
Mus musculus [10] = assay: Anticonvulsant activity in Swiss albino mouse assessed as protection against maximal electroshock-induced seizures at 100 mg/kg, ip administered 3 hrs prior to 50 mA current induction relative to control
Mus musculus [11] = assay: Anticonvulsant activity in Swiss albino mouse assessed as protection against maximal electroshock-induced seizures at 30 mg/kg, ip administered 0.5 hrs prior to 50 mA current induction relative to control
Mus musculus [12] = assay: Anticonvulsant activity in Swiss albino mouse assessed as protection against maximal electroshock-induced seizures at 100 mg/kg, ip administered 0.5 hrs prior to 50 mA current induction relative to control

Carbonic anhydrase 7, sequence (P43166 whole entry): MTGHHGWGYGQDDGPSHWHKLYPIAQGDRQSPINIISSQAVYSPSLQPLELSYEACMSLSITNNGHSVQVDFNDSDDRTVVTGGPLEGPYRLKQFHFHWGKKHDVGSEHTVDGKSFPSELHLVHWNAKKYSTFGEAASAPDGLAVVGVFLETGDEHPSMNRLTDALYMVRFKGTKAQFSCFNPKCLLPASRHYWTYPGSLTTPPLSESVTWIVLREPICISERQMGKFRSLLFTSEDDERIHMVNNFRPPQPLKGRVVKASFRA
Carbonic anhydrase 1, sequence (P00915 whole entry): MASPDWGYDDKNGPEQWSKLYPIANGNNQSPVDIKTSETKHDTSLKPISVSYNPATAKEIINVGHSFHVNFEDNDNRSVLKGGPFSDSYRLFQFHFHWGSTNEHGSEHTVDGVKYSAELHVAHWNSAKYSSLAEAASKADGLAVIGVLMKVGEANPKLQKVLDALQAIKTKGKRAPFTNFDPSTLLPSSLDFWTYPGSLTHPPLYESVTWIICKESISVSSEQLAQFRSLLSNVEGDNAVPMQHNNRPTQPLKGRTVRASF

| SMILES | pKi (Carbonic anhydrase 1) | pKi (Carbonic anhydrase 2) | pKi (Carbonic anhydrase 7) | pKi (Carbonic anhydrase 9) | also measured |
| --- | --- | --- | --- | --- | --- |
| NS(=O)(=O)c1ccc(C(=O)N/N=C/c2ccc(N3CCN(c4ccccc4)CC3)cc2)cc1 | < 5.00 | 5.38 | 6.74 | 6.56 | – |
| NS(=O)(=O)c1ccc(N/N=C/c2ccc(N3CCN(c4ccccn4)CC3)cc2)cc1 | < 5.00 | 5.34 | 6.87 | 6.63 | – |
| NS(=O)(=O)c1ccc(C(=O)N/N=C/c2ccc(N3CCN(C(=O)c4ccccc4)CC3)cc2)cc1 | 5.26 | 6.51 | 7.02 | 5.98 | – |
| NS(=O)(=O)c1ccc(N/N=C/c2ccc(N3CCN(C(=O)c4ccco4)CC3)cc2)cc1 | 6.49 | 7.51 | 8.21 | 5.75 | Activity (Mus musculus [1]): 50%; Activity (Mus musculus [2]): 50%; Activity (Mus musculus [3]): 83%; Activity (Mus musculus [4]): 50%; Activity (Mus musculus [5]): 33%; Activity (Mus musculus [6]): 33%; Activity (Mus musculus [7]): 67%; Activity (Mus musculus [8]): 50%; Activity (Mus musculus [9]): 50%; Activity (Mus musculus [10]): 50%; Activity (Mus musculus [11]): 50%; Activity (Mus musculus [12]): 83% |
| NS(=O)(=O)c1ccc(C(=O)N/N=C/c2ccc(N3CCN(C(=O)OCc4ccccc4)CC3)cc2)cc1 | 5.02 | 5.84 | 6.92 | 5.72 | – |
| NS(=O)(=O)c1ccc(N/N=C/c2ccc(N3CCN(C(=O)c4ccccc4)CC3)cc2)cc1 | < 5.00 | 5.55 | 6.89 | 5.60 | – |
| NS(=O)(=O)c1ccc(N/N=C/c2ccc(N3CCN(c4ncccn4)CC3)cc2)cc1 | < 5.00 | 5.08 | 6.22 | 5.65 | – |
| NS(=O)(=O)c1ccc(N/N=C/c2ccc(N3CCN(c4ccc(F)cc4)CC3)cc2)cc1 | 5.62 | 6.25 | 7.30 | 5.90 | – |
| NS(=O)(=O)c1ccc(C(=O)N/N=C/c2ccc(N3CCN(Cc4ccc5c(c4)OCO5)CC3)cc2)cc1 | 5.08 | 6.02 | 6.12 | 7.02 | – |
| NS(=O)(=O)c1ccc(C(=O)N/N=C/c2ccc(N3CCN(c4ccc(C(F)(F)F)cc4)CC3)cc2)cc1 | 5.09 | 6.26 | 6.83 | 5.73 | – |
| Cc1ccc(N2CCN(c3ccc(/C=N/Nc4ccc(S(N)(=O)=O)cc4)cc3)CC2)c(C)c1 | 5.39 | 6.26 | 7.14 | 5.76 | – |
| NS(=O)(=O)c1ccc(C(=O)N/N=C/c2ccc(N3CCN(c4ccccn4)CC3)cc2)cc1 | < 5.00 | 5.34 | 6.90 | 6.82 | – |
| NS(=O)(=O)c1ccc(C(=O)N/N=C/c2ccc(N3CCN(c4ncccn4)CC3)cc2)cc1 | 5.69 | 6.02 | 6.88 | 5.73 | – |
| NS(=O)(=O)c1ccc(N/N=C/c2ccc(N3CCN(c4ccccc4)CC3)cc2)cc1 | 5.10 | 6.05 | 7.01 | 5.91 | – |
| NS(=O)(=O)c1ccc(C(=O)N/N=C/c2ccc(N3CCN(Cc4ccccc4)CC3)cc2)cc1 | 5.15 | 6.38 | 7.38 | 6.79 | – |
| NS(=O)(=O)c1ccc(C(=O)N/N=C/c2ccc(N3CCN(C(=O)c4ccco4)CC3)cc2)cc1 | 5.02 | 6.16 | 7.10 | 7.52 | – |
| NS(=O)(=O)c1ccc(C(=O)N/N=C/c2ccc(N3CCN(c4ccc(F)cc4)CC3)cc2)cc1 | 5.24 | 6.08 | 6.83 | 5.71 | – |
| NS(=O)(=O)c1ccc(N/N=C/c2ccc(N3CCN(c4ccc(C(F)(F)F)cc4)CC3)cc2)cc1 | 5.02 | 5.12 | 6.93 | 5.71 | – |
| NS(=O)(=O)c1ccc(N/N=C/c2ccc(N3CCN(C(=O)OCc4ccccc4)CC3)cc2)cc1 | 6.04 | 7.03 | 7.94 | 5.79 | Activity (Mus musculus [1]): 50%; Activity (Mus musculus [2]): 33%; Activity (Mus musculus [3]): 50%; Activity (Mus musculus [4]): 67%; Activity (Mus musculus [5]): 50%; Activity (Mus musculus [6]): 67%; Activity (Mus musculus [7]): 67%; Activity (Mus musculus [8]): 33%; Activity (Mus musculus [9]): 33%; Activity (Mus musculus [10]): 67%; Activity (Mus musculus [11]): 50%; Activity (Mus musculus [12]): 50% |
